Read-outs that look alike come from different tables or passages of the source. Ends that are not written are not given here.
Assay: HPLC partitioning of synthetic helix dimers between aqueous mobile phase and nonpolar C-18 stationary phase as a function of pH
Assay type: physicochemical
Description: To determine whether the properties of the synthetic helices corresponded to their expected properties, each was tested on an HPLC column using a nonpolar (C-18) stationary phase. A sample of synthetic peptide solution was then injected, and the elution time (time to emerge from the bottom of the column) measured. The void time for the column was measured by injecting a small charged molecule such as citrate or acetate. The fraction of the sample solubilized in the aqueous, mobile phase (versus that bound to the hydrophobic, immobile phase) is determined by the void time divided by the sample elution time. A sample emerging in the void time is completely soluble in the mobile phase, whereas if it emerges in two void times it is half solubilized in the mobile phase and half bound to the stationary phase. By this procedure the affinity of each of the synthetic peptides for the aqueous, mobile phase, relative to the hydrophobic, stationary phase, could be measured as a function of pH. The HPLC column was run isocratically (constant eluent) using one of several different buffer systems. […] For that reason a value of 13% was used for all the buffer systems in that at that concentration the elution time for the peptides was determined to be on the order of 2 to 20 times the void time. […] The column was allowed to equilibrate as judged by 214 nm absorbance baseline stability. […]

Row | Sequence | fraction of the helix partitioned into the aqueous mobile phase (partition coefficient) as a function of pH | fraction of the helix partitioned into the aqueous mobile phase (partition coefficient) as a function of pH (C-18 HPLC, isocratic, 13% acetonitrile, trend with increasing pH)
1 | AKNLNEAAKNLNEA [Helix P-72, (Ala--Lys--Asn--Leu--Asn--Glu--Ala)2] | as the pH increased the peptide partitioned increasingly into the hydrophobic (stationary) phase | 
2 | AHNLNEAAHNLNEA [Helix P-81, (Ala--His--Asn--Leu--Asn--Glu--Ala)2] |  | fraction of the helix partitioning into the mobile phase increases as pH increases
